Test system: antigen-specific T cells in the draining lymph nodes (LN) and spleen
Assay: A/Vic murine vaccine model: cytokine secretion by antigen-stimulated T cells
Format: in vivo
Details: immunized mice, 5 days after tertiary immunization (day 33); comparison of UM-2014 and UM-1007; FIG. 4
Protocol: The adjuvanticity of liposomal formulations of UM-2014 (1 and 10 μg doses) was evaluated in an A/Vic murine vaccine model. Mice were intramuscularly immunized at day 0, 14, and 28, with blood collection at day 14 and day 28 (14dp1 and 14dp2, respectively). A tertiary immunization at day 28 was administered to assess cytokine production of antigen-specific T cells in the draining lymph nodes (LN) and spleen 5 days later (day 33).

CCCCCCCCCCCCCCCC(=O)OC[C@H](COCCOCCOCCOP(=O)(O)OCCN1CCC(Cn2c(O)nc3c(N)nc(O[C@@H](C)CCC)nc32)CC1)OC(=O)CCCCCCCCCCCCCCC [UM-1007]
cytokine secretion by antigen-stimulated T cells from draining LNs and spleen: very similar
